# ChEMBL document CHEMBL2390885, “Discovery of pyrido[2,3-d]pyrimidine-based inhibitors of HCV NS5A” (Bioorg Med Chem Lett, 2013)
# pEC50: −log10 of the molar value. Active and inactive are the calls of the source. The rule behind the calls is not given here.
# Key:
# Hepatitis C virus [1] = assay: Antiviral activity against Hepatitis C virus genotype 1a by replicon assay; format: functional, organism-based, Hepacivirus hominis; conditions: subtype 1a
# Hepatitis C virus [2] = assay: Antiviral activity against Hepatitis C virus genotype 1b by replicon assay; format: functional, organism-based, Hepacivirus hominis
# [3] = Half life in Sprague-Dawley rat at 5 mg/kg, po; format: ADME, organism-based; set-up: dose 5 mg/kg, route oral; conditions: in vivo
# [4] = Cmax in Sprague-Dawley rat at 5 mg/kg, po; format: ADME, organism-based; set-up: dose 5 mg/kg, route oral; conditions: in vivo
# [5] = Half life in Sprague-Dawley rat at 5 mg/kg, iv; format: ADME, organism-based; set-up: dose 5 mg/kg, route intravenous; conditions: in vivo
# [6] = Clearance in Sprague-Dawley rat at 5 mg/kg, iv; format: ADME, organism-based; set-up: dose 5 mg/kg, route intravenous; conditions: in vivo
# [7] = AUC in Sprague-Dawley rat at 5 mg/kg, po; format: ADME, organism-based; set-up: dose 5 mg/kg, route oral; conditions: plasma
# [8] = Oral bioavailability in Sprague-Dawley rat at 5 mg/kg; format: ADME, organism-based; conditions: in vivo
# [9] = Solubility in aqueous buffer; format: physicochemical
# [10] = Cmax in dog at 2.5 mg/kg, po; conditions: in vivo
# [11] = Half life in dog at 2.5 mg/kg, po; conditions: in vivo
# [12] = Half life in dog at 2.5 mg/kg, iv; format: ADME, organism-based, Canis lupus familiaris; set-up: dose 2.5 mg/kg, route intravenous; conditions: in vivo
# [13] = Oral bioavailability in dog at 2.5 mg/kg; conditions: in vivo
# [14] = Clearance in dog at 2.5 mg/kg, iv; format: ADME, organism-based, Canis lupus familiaris; set-up: dose 2.5 mg/kg, route intravenous; conditions: in vivo
# [15] = AUC in dog at 2.5 mg/kg, po; conditions: plasma
# Hepatitis C virus [16] = assay: Antiviral activity against Hepatitis C virus genotype 1b by replicon assay in presence of human plasma; format: functional, organism-based, Hepacivirus hominis
# Hepatitis C virus [17] = assay: Antiviral activity against Hepatitis C virus genotype 1b harboring NS5A Q24R/K26R double mutant infected in chimpanzee assessed as reduction in viral load at 2.5 mg/kg, iv administered every 8 hrs measured after 32 hrs; format: functional, organism-based; set-up: dose 2.5 mg/kg; conditions: Hepacivirus hominis
# Hepatitis C virus [18] = assay: Antiviral activity against Hepatitis C virus genotype 1b harboring NS5A Y93C/K26R double mutant infected in chimpanzee assessed as reduction in viral load at 2.5 mg/kg, iv administered every 8 hrs measured after 32 hrs; format: functional, organism-based; set-up: dose 2.5 mg/kg; conditions: Hepacivirus hominis
# Hepatitis C virus [19] = assay: Antiviral activity against Hepatitis C virus genotype 1b harboring NS5A K26R mutant infected in chimpanzee assessed as reduction in viral load at 2.5 mg/kg, iv administered every 8 hrs measured after 32 hrs; format: functional, organism-based; set-up: dose 2.5 mg/kg; conditions: Hepacivirus hominis
# Hepatitis C virus [20] = assay: Antiviral activity against Hepatitis C virus genotype 1b harboring NS5A L28M mutant infected in chimpanzee assessed as reduction in viral load at 2.5 mg/kg, iv administered every 8 hrs measured after 32 hrs; format: functional, organism-based; set-up: dose 2.5 mg/kg; conditions: Hepacivirus hominis
# Hepatitis C virus [21] = assay: Antiviral activity against Hepatitis C virus genotype 1b infected in chimpanzee assessed as log reduction in viral load at 2.5 mg/kg, iv administered every 8 hrs measured after 32 hrs relative to control; format: functional, Hepacivirus hominis
# [22] = Half life in iv dosed chimpanzee; format: ADME, organism-based, Pan troglodytes; conditions: in vivo
pEC50 (Hepatitis C virus [1]),pEC50 (Hepatitis C virus [2]),SMILES,other results
6.55,7.70,CC(C)c1ccc2c(Nc3cc(C(=O)NC(C)c4ccccc4F)ccc3Sc3ccc(N)cc3)ncnc2n1 (configuration not stated),
7.80,8.40,CC(C)c1ccc2c(Nc3cc(C(=O)N[C@@H](C)c4ccc(Br)cc4)ccc3Sc3ccc(N)cc3)ncnc2n1,half-life [3]: 2 h; Cmax [4]: 330 ng/mL; half-life [5]: 1.9 h; clearance [6]: 5.67 mL/min/kg; AUC [7]: 3840 ng·h/mL; bioavailability [8]: 24.9%
5.30,6.83,CC(=O)Nc1ccc(Sc2ccc(C(=O)N[C@@H](C)c3ccccc3)cc2Nc2ncnc3nc(C(C)C)ccc23)cc1,
7.05,7.28,COc1ccc([C@H](C)NC(=O)c2ccc(Sc3ccc(N)cc3)c(Nc3ncnc4nc(C(C)C)ccc34)c2)cc1,
6.62,7.35,CC(C)c1ccc2c(Nc3cc(C(=O)N[C@@H](C)C4CCCCC4)ccc3Sc3ccc(N)cc3)ncnc2n1,half-life [3]: 0.8 h; Cmax [4]: 200 ng/mL; half-life [5]: 0.5 h; clearance [6]: 21.5 mL/min/kg; AUC [7]: 250 ng·h/mL; bioavailability [8]: 5%
6.16,6.92,CC(C)c1ccc2c(Nc3cc(C(=O)N[C@@H](C)c4ccccc4)ccc3Sc3ccc(O)cc3)ncnc2n1,
7.62,8.40,COc1cccc([C@H](C)NC(=O)c2ccc(Sc3ccc(N)cc3)c(Nc3ncnc4nc(C(C)C)ccc34)c2)c1,
6.82,6.89,CC(C)c1ccc2c(Nc3cc(C(=O)NCc4ccccc4)ccc3Sc3ccc(N)cc3)ncnc2n1,
6.47,7.52,CC(C)c1ccc2c(Nc3cc(C(=O)N[C@@H](C)c4ccc5ccccc5c4)ccc3Sc3ccc(N)cc3)ncnc2n1,
6.58,6.90,CC[C@@H](NC(=O)c1ccc(Sc2ccc(N)cc2)c(Nc2ncnc3nc(C(C)C)ccc23)c1)c1ccccc1,
5.93,6.48,CC(C)c1ccc2c(Nc3cc(C(=O)NC(C)c4ccncc4)ccc3Sc3ccc(N)cc3)ncnc2n1 (configuration not stated),
7.46,7.48,CC[C@H](NC(=O)c1ccc(Sc2ccc(N)cc2)c(Nc2ncnc3nc(C(C)C)ccc23)c1)c1ccccc1,
7.34,8.52,C[C@H](NC(=O)c1ccc(Sc2ccc(N)cc2)c(Nc2ncnc3nc(C(C)(C)C)ccc23)c1)c1ccccc1,
5.97,6.15,CC(C)c1ccc2c(Nc3cc(C(=O)NC4(c5ccccc5)CC4)ccc3Sc3ccc(N)cc3)ncnc2n1,
5.49,6.46,CC(C)c1ccc2c(Nc3cc(C(=O)N[C@H](CCO)c4ccccc4)ccc3Sc3ccc(N)cc3)ncnc2n1,
6.70,6.60,C[C@H](NC(=O)c1ccc(Sc2ccc(N)cc2)c(Nc2ncnc3nc(C(F)(F)F)ccc23)c1)c1ccccc1,
7.04,7.82,CC(C)c1ccc2c(Nc3cc(C(=O)NC(C)c4cccc(F)c4)ccc3Sc3ccc(N)cc3)ncnc2n1 (configuration not stated),
7.48,8.05,CC(C)c1ccc2c(Nc3cc(C(=O)NC(C)c4cccc(Br)c4)ccc3Sc3ccc(N)cc3)ncnc2n1 (configuration not stated),
6.55,6.74,CC(C)c1ccc2c(Nc3cc(C(=O)NC(C)(C)c4ccccc4)ccc3Sc3ccc(N)cc3)ncnc2n1,
7.89,8.70,CC(C)c1ccc2c(Nc3cc(C(=O)N[C@H](c4ccccc4)C(F)(F)F)ccc3Sc3ccc(N)cc3)ncnc2n1,half-life [3]: 1.8 h; Cmax [4]: 930 ng/mL; half-life [5]: 2.9 h; clearance [6]: 4 mL/min/kg; AUC [7]: 3890 ng·h/mL; bioavailability [8]: 18.7%
6.77,7.55,CC(C)c1ccc2c(Nc3cc(C(=O)N[C@@H](C)c4ccccc4Br)ccc3Sc3ccc(N)cc3)ncnc2n1,
7.18,7.39,CC(C)c1ccc2c(Nc3cc(C(=O)NC(C)c4ccc(C(F)(F)F)cc4)ccc3Sc3ccc(N)cc3)ncnc2n1 (configuration not stated),
7.80,7.89,CC(C)c1ccc2c(Nc3cc(C(=O)N[C@@H]4CCc5ccccc54)ccc3Sc3ccc(N)cc3)ncnc2n1,

pEC50 (Hepatitis C virus [1]),pEC50 (Hepatitis C virus [2]),SMILES,other results
5.92,7.22,CC(C)c1ccc2c(Nc3cc(C(=O)N[C@](C)(CO)c4ccccc4)ccc3Sc3ccc(N)cc3)ncnc2n1,
5.92,6.22,Cc1ccc2c(Nc3cc(C(=O)N[C@@H](C)c4ccccc4)ccc3Sc3ccc(N)cc3)ncnc2n1,
5.52,6.63,CC(C)c1ccc2c(Nc3cc(C(=O)N[C@H](CO)c4ccccc4)ccc3Sc3ccc(N)cc3)ncnc2n1,
5.10,5.20,C[C@H](NC(=O)c1ccc(Sc2ccc(N)cc2)c(Nc2ncnc3ncccc23)c1)c1ccccc1,
5.34,6.50,CC(C)c1ccc2c(Nc3cc(C(=O)N[C@@H](CO)c4ccccc4)ccc3Sc3ccc(N)cc3)ncnc2n1,
8.00,8.70,CC(C)c1ccc2c(Nc3cc(C(=O)N[C@@H](C)c4ccc(F)cc4)ccc3Sc3ccc(N)cc3)ncnc2n1,
7.35,8.15,CC(C)c1ccc2c(Nc3cc(C(=O)N[C@@H](C)c4ccccc4)ccc3Sc3ccc(N)cc3)ncnc2n1,half-life [3]: 2.7 h; solubility [9]: 5 µM; Cmax [4]: 1480 ng/mL; half-life [5]: 1.6 h; Cmax [10]: 490 ng/mL; clearance [6]: 5.5 mL/min/kg; AUC [7]: 6490 ng·h/mL; bioavailability [8]: 42.4%; half-life [11]: 3 h; half-life [12]: 3.2 h; bioavailability [13]: 18.8%; clearance [14]: 4.33 mL/min/kg; AUC [15]: 2350 ng·h/mL; pEC50 (Hepatitis C virus [16]): 5.92
6.46,7.29,CC(C)c1ccc2c(Nc3cc(C(=O)N[C@@H](C)c4ccccc4)ccc3Sc3ccc(NS(C)(=O)=O)cc3)ncnc2n1,
7.00,8.00,Cc1cccc(C(C)NC(=O)c2ccc(Sc3ccc(N)cc3)c(Nc3ncnc4nc(C(C)C)ccc34)c2)c1 (configuration not stated),
6.42,6.80,CC(C)c1ccc2c(Nc3cc(C(=O)NC(C)c4cccs4)ccc3Sc3ccc(N)cc3)ncnc2n1 (configuration not stated),
5.64,6.10,CC(C)c1ccc2c(Nc3cc(C(=O)N[C@@H](C)c4ccccc4)ccc3Oc3ccc(N)cc3)ncnc2n1,
6.74,7.00,CC(C)c1ccc2c(Nc3cc(C(=O)N[C@H](C)c4ccccc4)ccc3Sc3ccc(N)cc3)ncnc2n1,
6.21,7.40,COc1ccccc1C(C)NC(=O)c1ccc(Sc2ccc(N)cc2)c(Nc2ncnc3nc(C(C)C)ccc23)c1 (configuration not stated),
7.38,8.40,COC(=O)Nc1ccc(Sc2ccc(C(=O)N[C@@H](C)c3ccccc3)cc2Nc2ncnc3nc(C(C)C)ccc23)cc1,half-life [5]: 0.4 h; clearance [6]: 12.8 mL/min/kg; bioavailability [8]: 0%
6.43,7.70,CC(C)c1ccc2c(Nc3cc(C(=O)N[C@@H](C)c4ccccc4C(F)(F)F)ccc3Sc3ccc(N)cc3)ncnc2n1,
6.04,6.79,CC(C)c1ccc2c(Nc3cc(C(=O)NC(C)c4ccccn4)ccc3Sc3ccc(N)cc3)ncnc2n1 (configuration not stated),
6.68,7.68,CC(C)c1ccc2c(Nc3cc(C(=O)N[C@@H](C)c4cccc(C(F)(F)F)c4)ccc3Sc3ccc(N)cc3)ncnc2n1,
5.83,6.62,CC(C)c1ccc2c(Nc3cc(C(=O)N[C@@H](CCO)c4ccccc4)ccc3Sc3ccc(N)cc3)ncnc2n1,
6.35,7.27,CC(C)c1ccc2c(Nc3cc(C(=O)N[C@H]4CCc5ccccc54)ccc3Sc3ccc(N)cc3)ncnc2n1,
6.52,7.52,Cc1ccccc1C(C)NC(=O)c1ccc(Sc2ccc(N)cc2)c(Nc2ncnc3nc(C(C)C)ccc23)c1 (configuration not stated),
7.66,8.30,Cc1ccc([C@H](C)NC(=O)c2ccc(Sc3ccc(N)cc3)c(Nc3ncnc4nc(C(C)C)ccc34)c2)cc1,half-life [3]: 2.6 h; Cmax [4]: 160 ng/mL; half-life [5]: 0.7 h; clearance [6]: 18.3 mL/min/kg; AUC [7]: 600 ng·h/mL; bioavailability [8]: 12.2%
5.85,6.42,CC(C)c1ccc2c(Nc3cc(C(=O)NC(C)c4cccnc4)ccc3Sc3ccc(N)cc3)ncnc2n1 (configuration not stated),

SMILES,pEC50 (Hepatitis C virus [1]),pEC50 (Hepatitis C virus [2]),other results
CC(C)c1ccc2c(Nc3cc(C(=O)N[C@@](C)(CO)c4ccccc4)ccc3Sc3ccc(N)cc3)ncnc2n1,6.73,8.70,Activity (Hepatitis C virus [17]): inactive; Activity (Hepatitis C virus [18]): inactive; half-life [3]: 2.7 h; solubility [9]: 19.7 µM; Cmax [4]: 320 ng/mL; half-life [5]: 1.1 h; clearance [6]: 12.5 mL/min/kg; Activity (Hepatitis C virus [19]): inactive; AUC [7]: 900 ng·h/mL; bioavailability [8]: 13.3%; Activity (Hepatitis C virus [20]): inactive; FC (Hepatitis C virus [21]): 1.65; half-life [22]: 4.1 h; pEC50 (Hepatitis C virus [16]): 7.47
